Reference: article PMC10648927, “Examining the activity of cefepime-taniborbactam against Burkholderia cepacia complex and Burkholderia gladioli isolated from cystic fibrosis patients in the United States” (Antimicrobial Agents and Chemotherapy, 2023)
Converted amounts (≈) assume the structure as drawn.

Key:
Parameters in all cases: agar dilution MIC, growth inhibition of clinical Burkholderia isolates
B. multivorans AU10897 = tested on: T1, B. multivorans AU10897; assay: microbe, parasite or virus in culture; conditions: Burkholderia multivorans, AU10897
T1 construct: AU10897
In short: (§1)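 MICs by agar dilution against Bcc and B. gladioli clinical isolates, interpreted with CLSI breakpoints where available; K. pneumoniae ATCC 700603 (SHV-18) and ATCC BAA-1705 (KPC) served as quality controls.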

B. cenocepacia AU20146 = tested on: T2, B. cenocepacia AU20146; assay: microbe, parasite or virus in culture; conditions: Burkholderia cenocepacia, AU20146
T2 construct: AU20146
In short: as §1

B. cenocepacia AU16448 = tested on: T3, B. cenocepacia AU16448; assay: microbe, parasite or virus in culture; conditions: Burkholderia cenocepacia, AU16448
T3 construct: AU16448
In short: as §1

B. cepacia AU29493 = tested on: T4, B. cepacia AU29493; assay: microbe, parasite or virus in culture; conditions: Burkholderia cepacia, AU29493
T4 construct: AU29493
In short: as §1

B. cenocepacia AU0583 = tested on: T5, B. cenocepacia AU0583; assay: microbe, parasite or virus in culture; conditions: Burkholderia cenocepacia, AU0583
T5 construct: AU0583
In short: as §1

B. cepacia AU0108 = tested on: T6, B. cepacia AU0108; assay: microbe, parasite or virus in culture; conditions: Burkholderia cepacia, AU0108
T6 construct: AU0108
In short: as §1

B. cepacia AU1555 = tested on: T7, B. cepacia AU1555; assay: microbe, parasite or virus in culture; conditions: Burkholderia cepacia, AU1555
T7 construct: AU1555
In short: as §1

B. cenocepacia AU22509 = tested on: T8, B. cenocepacia AU22509; assay: microbe, parasite or virus in culture; conditions: Burkholderia cenocepacia, AU22509
T8 construct: AU22509
In short: as §1

B. arboris AU24192 = tested on: T9, B. arboris AU24192; assay: organism not typed
T9 construct: AU24192
In short: as §1

B. contaminans AU25403 = tested on: T10, B. contaminans AU25403; assay: organism not typed
T10 construct: AU25403
In short: as §1

B. multivorans AU23668 = tested on: T11, B. multivorans AU23668; assay: microbe, parasite or virus in culture; conditions: Burkholderia multivorans, AU23668
T11 construct: AU23668
In short: as §1

B. cenocepacia AU9710 = tested on: T12, B. cenocepacia AU9710; assay: microbe, parasite or virus in culture; conditions: Burkholderia cenocepacia, AU9710
T12 construct: AU9710
In short: as §1

B. gladioli AU16341 = tested on: T13, B. gladioli AU16341; assay: organism not typed
T13 construct: AU16341
In short: as §1

B. cepacia AU22213 = tested on: T14, B. cepacia AU22213; assay: microbe, parasite or virus in culture; conditions: Burkholderia cepacia, AU22213
T14 construct: AU22213
In short: as §1

B. cepacia AU17630 = tested on: T15, B. cepacia AU17630; assay: microbe, parasite or virus in culture; conditions: Burkholderia cepacia, AU17630
T15 construct: AU17630
In short: as §1

B. multivorans AU26250 = tested on: T16, B. multivorans AU26250; assay: microbe, parasite or virus in culture; conditions: Burkholderia multivorans, AU26250
T16 construct: AU26250
In short: as §1

B. multivorans AU17534 = tested on: T17, B. multivorans AU17534; assay: microbe, parasite or virus in culture; conditions: Burkholderia multivorans, AU17534
T17 construct: AU17534
In short: as §1

Row | Compound | MIC (B. multivorans AU10897) [µg/mL] | MIC (B. cenocepacia AU20146) [µg/mL] | MIC (B. cenocepacia AU16448) [µg/mL] | MIC (B. cepacia AU29493) [µg/mL] | MIC (B. cenocepacia AU0583) [µg/mL] | MIC (B. cepacia AU0108) [µg/mL] | MIC (B. cepacia AU1555) [µg/mL] | MIC (B. cenocepacia AU22509) [µg/mL] | MIC (B. arboris AU24192) [µg/mL] | MIC (B. contaminans AU25403) [µg/mL] | MIC (B. multivorans AU23668) [µg/mL] | MIC (B. cenocepacia AU9710) [µg/mL] | MIC (B. gladioli AU16341) [µg/mL] | MIC (B. cepacia AU22213) [µg/mL] | MIC (B. cepacia AU17630) [µg/mL] | MIC (B. multivorans AU26250) [µg/mL] | MIC (B. multivorans AU17534) [µg/mL]
1 | CO/N=C(\C(=O)N[C@@H]1C(=O)N2C(C(=O)[O-])=C(C[N+]3(C)CCCC3)CS[C@H]12)c1csc(N)n1 [cefepime] | 32 (≈ 66.6 µM) | 16 (≈ 33.3 µM) | 16 (≈ 33.3 µM) | > 32 | 32 (≈ 66.6 µM) | 8 (≈ 16.6 µM) | > 32 | > 32 | 32 (≈ 66.6 µM) | 8 (≈ 16.6 µM) | 4 (≈ 8.32 µM) | 16 (≈ 33.3 µM) | > 32 | 32 (≈ 66.6 µM) | > 32 | 4 (≈ 8.32 µM) | > 32
2 | C[C@H]1COc2c(N3CCN(C)CC3)c(F)cc3c(=O)c(C(=O)O)cn1c23 [levofloxacin] | 16 (≈ 44.3 µM) | 2 (≈ 5.53 µM) | 8 (≈ 22.1 µM) | 8 (≈ 22.1 µM) | > 32 | 2 (≈ 5.53 µM) | 16 (≈ 44.3 µM) | 32 (≈ 88.6 µM) | 4 (≈ 11.1 µM) | 2 (≈ 5.53 µM) | 2 (≈ 5.53 µM) | 4 (≈ 11.1 µM) | 4 (≈ 11.1 µM) | 2 (≈ 5.53 µM) | 4 (≈ 11.1 µM) | 2 (≈ 5.53 µM) | 
3 | C[C@@H](O)[C@H]1C(=O)N2C(C(=O)O)=C(S[C@@H]3CN[C@H](C(=O)N(C)C)C3)[C@H](C)[C@H]12 [meropenem] | 8 (≈ 20.9 µM) | 4 (≈ 10.4 µM) | 4 (≈ 10.4 µM) | 8 (≈ 20.9 µM) | 4 (≈ 10.4 µM) | 4 (≈ 10.4 µM) | 8 (≈ 20.9 µM) | 8 (≈ 20.9 µM) | 8 (≈ 20.9 µM) | 2 (≈ 5.22 µM) | 2 (≈ 5.22 µM) | 4 (≈ 10.4 µM) | 8 (≈ 20.9 µM) | 4 (≈ 10.4 µM) | 4 (≈ 10.4 µM) | 2 (≈ 5.22 µM) | 16 (≈ 41.7 µM)
